From patent US20250000843A1, “LIGNAN-INSPIRED COMPOUNDS, METHODS OF MAKING, AND USING THEREOF” (IOWAIBO, INC., priority 2023, published 2025)

Tested on: PC3, a human prostate cancer cell line
Test: MTT toxicity assay in PC3 prostate cancer cells
Type: cell-based
Details: for prostate cancer cell death as compared to enterolactone: PC3, at higher concentrations, 24 hours and 72 hours post-treatment
Protocol: Toxicity of the dibenzyl butyl lactone derivative (3-[(3,4-dimethoxyphenyl)cyclopentyl], 4-[(3-hydroxyphenol)methyl]oxolan-2-one) in breast cancer cells was evaluated using MTT assay. The MTT toxicity test is a colorimetric assay to measure cells' metabolic activity by serving as a substrate of cellular enzymes that reduce the tetrazolium orange dye, MTT (3-(4,5-Dimethylthiazol-2-yl)-2,5-diphenyltetrazolium bromide) to its insoluble, formazan, giving a purple color. The rate of conversion is directly proportional to cells' mitochondrial metabolic activity via NAD (P) H-dependent cellular oxidoreductase enzymes and serves as a surrogate marker of cell viability.
Cells previously expanded were seeded in 96 well plates at 1.9×10^5 and 9.6×10^4 cells/plate for 24- and 72-hours treatment respectively. This concentration is known to show the best window for the MTT assay, with better sensitivity and low variability.
5 mg of powdered enterolactone, dibenzyl butyl lactone derivative enantiomer A, and dibenzyl butyl lactone derivative enantiomer B were dissolved in 500 μl of DMSO at room temperature. Eight-point curves, ⅓ dilutions (highest concentration 125 μM), were prepared.
Twenty-four hours following the seeding process, the cells were washed once with phosphate buffered saline (PBS) and treated with the respective compounds in cell culture media. Each condition was tested in triplicates. For positive and negative controls, 8 mM methyl methane sulfonate (MMS) and DMSO 100% were used respectively.
Following compound addition, the plates were incubated for 24 and 72 hours. After the treatment period, cells were washed twice with PBS and media was replaced with MTT reagent at 0.5 mg/ml in Dulbecco's modified Eagle medium (DMEM) without phenol red. The plates were gently shaken and incubated for 4 hours. After the incubation the medium was removed and replaced by DMSO. The plates were gently shaken to solubilize the formazan crystals. Absorbance was measured using an Envision multiplate reader at a wavelength of 570 nm.
Toxicity of the dibenzyl butyl lactone derivative (3-[(3,4-dimethoxyphenyl)cyclopentyl], 4-[(3-hydroxyphenol)methyl]oxolan-2-one) in prostate cancer cells was evaluated using MTT assay. The same methods as those used in Example 2 were employed, except the cell line used was PC3, a human prostate cancer cell line, and cell cultures were established in Kaighn's modification of Ham's […] medium.
MTT assay results are shown in Tables 16-21 and expressed as the percentage of cell death after treatment.

## O=C1OC[C@H](Cc2cccc(O)c2)[C@H]1Cc1cccc(O)c1 (racemic) [Enterolactone, reference compound]
PC3, 24 hours, 0.06 μM
  Cell death #1 (%): −3.37%
  Cell death #2 (%): −20.79%
  Cell death #3 (%): −22.43%
  Cell death (%) MEAN: −15.53%
PC3, 24 hours, 0.17 μM
  Cell death #1 (%): −12.56%
  Cell death #2 (%): −5.41%
  Cell death #3 (%): −10.24%
  Cell death (%) MEAN: −9.40%
PC3, 24 hours, 0.51 μM
  Cell death #1 (%): −29.78%
  Cell death #2 (%): −35.88%
  Cell death #3 (%): −8.98%
  Cell death (%) MEAN: −24.88%
PC3, 24 hours, 1.54 μM
  Cell death #1 (%): −30.56%
  Cell death #2 (%): −47.58%
  Cell death #3 (%): −25.82%
  Cell death (%) MEAN: −34.65%
PC3, 24 hours, 4.63 μM
  Cell death #1 (%): −41.49%
  Cell death #2 (%): −38.59%
  Cell death #3 (%): −32.20%
  Cell death (%) MEAN: −37.42%
PC3, 24 hours, 13.89 μM
  Cell death #1 (%): −33.85%
  Cell death #2 (%): −41.29%
  Cell death #3 (%): −40.62%
  Cell death (%) MEAN: −38.59%
PC3, 24 hours, 41.67 μM
  Cell death #1 (%): −32.30%
  Cell death #2 (%): −17.98%
  Cell death #3 (%): −35.59%
  Cell death (%) MEAN: −28.62%
PC3, 24 hours, 125.00 μM
  Cell death #1 (%): 19.65%
  Cell death #2 (%): 12.01%
  Cell death #3 (%): 15.10%
  Cell death (%) MEAN: 15.59%
PC3, 72 hours, 0.06 μM
  Cell death #1 (%): −39.68%
  Cell death #2 (%): −40.18%
  Cell death #3 (%): −37.32%
  Cell death (%) MEAN: −39.06%
PC3, 72 hours, 0.17 μM
  Cell death #1 (%): −49.03%
  Cell death #2 (%): −43.54%
  Cell death #3 (%): −39.93%
  Cell death (%) MEAN: −44.17%
PC3, 72 hours, 0.51 μM
  Cell death #1 (%): −71.45%
  Cell death #2 (%): −77.56%
  Cell death #3 (%): −73.70%
  Cell death (%) MEAN: −74.24%
PC3, 72 hours, 1.54 μM
  Cell death #1 (%): −63.98%
  Cell death #2 (%): −69.71%
  Cell death #3 (%): −46.41%
  Cell death (%) MEAN: −60.03%
PC3, 72 hours, 4.63 μM
  Cell death #1 (%): −74.57%
  Cell death #2 (%): −70.83%
  Cell death #3 (%): −81.17%
  Cell death (%) MEAN: −75.52%
PC3, 72 hours, 13.89 μM
  Cell death #1 (%): −60.86%
  Cell death #2 (%): −51.02%
  Cell death #3 (%): −63.98%
  Cell death (%) MEAN: −58.62%
PC3, 72 hours, 41.67 μM
  Cell death #1 (%): −35.45%
  Cell death #2 (%): −32.21%
  Cell death #3 (%): −34.95%
  Cell death (%) MEAN: −34.20%
PC3, 72 hours, 125.00 μM
  Cell death #1 (%): 35.94%
  Cell death #2 (%): 32.46%
  Cell death #3 (%): 22.11%
  Cell death (%) MEAN: 30.17%

## O=C1OCC(Cc2ccc3c(c2)OCO3)/C1=C\c1cccc(O)c1 (single isomer, unassigned) [Enantiomer A, 3-[(3,4-dimethoxyphenyl)cyclopentyl], 4-[(3-hydroxyphenol)methyl]oxolan-2-one]
PC3, 24 hours, 0.06 μM
  Cell death #1 (%): −10.92%
  Cell death #2 (%): −13.82%
  Cell death #3 (%): −11.02%
  Cell death (%) MEAN: −11.92%
PC3, 24 hours, 0.17 μM
  Cell death #1 (%): −27.17%
  Cell death #2 (%): −17.50%
  Cell death #3 (%): −8.79%
  Cell death (%) MEAN: −17.82%
PC3, 24 hours, 0.51 μM
  Cell death #1 (%): −2.70%
  Cell death #2 (%): −15.18%
  Cell death #3 (%): −10.44%
  Cell death (%) MEAN: −9.44%
PC3, 24 hours, 1.54 μM
  Cell death #1 (%): −29.20%
  Cell death #2 (%): −24.37%
  Cell death #3 (%): −23.78%
  Cell death (%) MEAN: −25.78%
PC3, 24 hours, 4.63 μM
  Cell death #1 (%): −17.98%
  Cell death #2 (%): −21.37%
  Cell death #3 (%): −15.27%
  Cell death (%) MEAN: −18.21%
PC3, 24 hours, 13.89 μM
  Cell death #1 (%): −26.49%
  Cell death #2 (%): −20.40%
  Cell death #3 (%): −18.56%
  Cell death (%) MEAN: −21.82%
PC3, 24 hours, 41.67 μM
  Cell death #1 (%): −6.18%
  Cell death #2 (%): −0.76%
  Cell death #3 (%): −12.85%
  Cell death (%) MEAN: −6.60%
PC3, 24 hours, 125.00 μM
  Cell death #1 (%): 32.42%
  Cell death #2 (%): 28.74%
  Cell death #3 (%): 33.00%
  Cell death (%) MEAN: 31.39%
PC3, 72 hours, 0.06 μM
  Cell death #1 (%): −39.43%
  Cell death #2 (%): −40.43%
  Cell death #3 (%): −33.95%
  Cell death (%) MEAN: −37.94%
PC3, 72 hours, 0.17 μM
  Cell death #1 (%): −43.42%
  Cell death #2 (%): −40.55%
  Cell death #3 (%): −38.31%
  Cell death (%) MEAN: −40.76%
PC3, 72 hours, 0.51 μM
  Cell death #1 (%): −63.73%
  Cell death #2 (%): −69.58%
  Cell death #3 (%): −63.23%
  Cell death (%) MEAN: −65.51%
PC3, 72 hours, 1.54 μM
  Cell death #1 (%): −46.91%
  Cell death #2 (%): −52.39%
  Cell death #3 (%): −53.51%
  Cell death (%) MEAN: −50.94%
PC3, 72 hours, 4.63 μM
  Cell death #1 (%): −76.31%
  Cell death #2 (%): −66.59%
  Cell death #3 (%): −54.63%
  Cell death (%) MEAN: −65.85%
PC3, 72 hours, 13.89 μM
  Cell death #1 (%): −45.54%
  Cell death #2 (%): −47.91%
  Cell death #3 (%): −30.21%
  Cell death (%) MEAN: −41.22%
PC3, 72 hours, 41.67 μM
  Cell death #1 (%): 9.78%
  Cell death #2 (%): 23.24%
  Cell death #3 (%): 14.02%
  Cell death (%) MEAN: 15.68%
PC3, 72 hours, 125.00 μM
  Cell death #1 (%): 75.56%
  Cell death #2 (%): 74.94%
  Cell death #3 (%): 74.82%
  Cell death (%) MEAN: 75.11%
  prostate cancer cell death as compared to enterolactone: increased prostate cancer cell death as compared to enterolactone

## O=C1OCC(Cc2ccc3c(c2)OCO3)/C1=C\c1cccc(O)c1 (single isomer, unassigned) [Enantiomer B, 3-[(3,4-dimethoxyphenyl)cyclopentyl], 4-[(3-hydroxyphenol)methyl]oxolan-2-one]
PC3, 24 hours, 0.06 μM
  Cell death #1 (%): −14.60%
  Cell death #2 (%): −12.15%
  Cell death #3 (%): −1.24%
  Cell death (%) MEAN: −9.33%
PC3, 24 hours, 0.17 μM
  Cell death #1 (%): −22.81%
  Cell death #2 (%): −20.24%
  Cell death #3 (%): −14.35%
  Cell death (%) MEAN: −19.13%
PC3, 24 hours, 0.51 μM
  Cell death #1 (%): −15.09%
  Cell death #2 (%): −34.33%
  Cell death #3 (%): −34.94%
  Cell death (%) MEAN: −28.12%
PC3, 24 hours, 1.54 μM
  Cell death #1 (%): −58.35%
  Cell death #2 (%): −51.85%
  Cell death #3 (%): −43.77%
  Cell death (%) MEAN: −51.32%
PC3, 24 hours, 4.63 μM
  Cell death #1 (%): −72.93%
  Cell death #2 (%): −63.74%
  Cell death #3 (%): −39.60%
  Cell death (%) MEAN: −58.76%
PC3, 24 hours, 13.89 μM
  Cell death #1 (%): −71.22%
  Cell death #2 (%): −63.50%
  Cell death #3 (%): −63.74%
  Cell death (%) MEAN: −66.15%
PC3, 24 hours, 41.67 μM
  Cell death #1 (%): −68.77%
  Cell death #2 (%): −35.80%
  Cell death #3 (%): −33.35%
  Cell death (%) MEAN: −45.97%
PC3, 24 hours, 125.00 μM
  Cell death #1 (%): 6.23%
  Cell death #2 (%): 3.54%
  Cell death #3 (%): 4.64%
  Cell death (%) MEAN: 4.80%
PC3, 72 hours, 0.06 μM
  Cell death #1 (%): −22.56%
  Cell death #2 (%): −30.41%
  Cell death #3 (%): −23.49%
  Cell death (%) MEAN: −25.49%
PC3, 72 hours, 0.17 μM
  Cell death #1 (%): −33.20%
  Cell death #2 (%): −39.41%
  Cell death #3 (%): −29.79%
  Cell death (%) MEAN: −34.13%
PC3, 72 hours, 0.51 μM
  Cell death #1 (%): −47.57%
  Cell death #2 (%): −52.84%
  Cell death #3 (%): −52.74%
  Cell death (%) MEAN: −51.05%
PC3, 72 hours, 1.54 μM
  Cell death #1 (%): −52.64%
  Cell death #2 (%): −40.34%
  Cell death #3 (%): −51.19%
  Cell death (%) MEAN: −48.05%
PC3, 72 hours, 4.63 μM
  Cell death #1 (%): −45.81%
  Cell death #2 (%): −40.03%
  Cell death #3 (%): −52.74%
  Cell death (%) MEAN: −46.19%
PC3, 72 hours, 13.89 μM
  Cell death #1 (%): −33.31%
  Cell death #2 (%): −22.56%
  Cell death #3 (%): −34.75%
  Cell death (%) MEAN: −30.21%
PC3, 72 hours, 41.67 μM
  Cell death #1 (%): 11.03%
  Cell death #2 (%): 11.96%
  Cell death #3 (%): 14.65%
  Cell death (%) MEAN: 12.55%
PC3, 72 hours, 125.00 μM
  Cell death #1 (%): 64.88%
  Cell death #2 (%): 61.78%
  Cell death #3 (%): 57.24%
  Cell death (%) MEAN: 61.30%
  prostate cancer cell death as compared to enterolactone: increased prostate cancer cell death as compared to enterolactone
